Measured values taken from article PMC12624573, “The antigen presentation landscape of cytokine-stressed human pancreatic islets” (Cell reports, 2025).

How the values were obtained:
[1] = system: islet-derived T cell lines; assay: Cytokine bead array (IFN-γ, TNF-α, IL-10), combined islet-derived T cell lines from donors with T1D; details: for islet derived T cell lines response to A2-S peptide pools or to single peptides: class I (A2) peptide pools or single peptides; for islet derived T cell lines response to A2-S peptide pools or to single peptides / islet derived T cell lines response to DR peptide pools or to single peptides: IFNg, TNFa, IL-10 secretion; for islet derived T cell lines response to DR peptide pools or to single peptides: class II (DR) peptide pools or single peptides
Procedure: Live pancreas slices (150–200 μm thick) were provided by nPOD. […] Ten slices were digested with 1 mg/mL collagenase-P (Sigma) in PBS at 37°C with shaking with a magnetic stir bar, with tissue dispersal visually monitored. After washing, islets were enriched by hand-picking, and single-islet-derived T-cell lines generated as described[51] with modifications. Single islets were plated in wells of 96 well round bottom plates (CoStar) on irradiated (5000 rads) allogeneic PBMC with AIM-V media (Thermo Fisher Scientific) supplemented with 2 mM L-glutamine, 5 mM HEPES, and 100 U/ml penicillin and 100 μg/mL streptomycin, 0.1 mM each non-essential amino acids, 1 mM sodium pyruvate, and 5% heat-inactivated human male AB serum (Grifols Diagnostic) with 5 μg/mL each of anti-CD3, anti-CD28 (BioLegend), anti-PD-1 (ligand blocking clone EH12.1, BD Biosciences) and anti-Fas (clone SM1/23: Thermo Fisher Scientific) with 20 U/ml IL-2, and 10 ng/mL IL-15 (R&D), and 50 nM mifepristone (Thermo Fisher Scientific). The lymphocytic outgrowth from individual islets was collected, re-plated, allowed to expand with IL-2 and IL-15, and cryopreserved in early passage (P1-P3). For these experiments, 7–10 T cell lines derived from single islets from each donor were combined. Each combined T cell line contained either >60% CD4 or CD8 T cells. For some experiments in order to enriched for any reactive T cells, combined islet-derived T cell lines were stimulated with individual peptides pools with the inclusion of 5 μg/mL soluble anti-CD28 (BD Biosciences), fed with 20 U/mL recombinant IL-2 (Proleukin) and recombinant 10 ng/mL IL-15 (R&D Systems) on Day 1, allowed to rest for 4–6 days, and then re-tested for reactivity to that peptide pool.
For islet-derived combined T cellana lines, either irradiated A*02:01-Hmy.2B-LCL or DRB1*03:01-expressing QBL B-LCL (Millipore Sigma) were pulsed for 2 h with indicated pools of peptides (each peptide at 2.5 μg/mL), washed and then co-cultured at 2x10^4/cells well with combined T cell lines at 5x10^4/cell in 96-well round bottom plates (CoStar) in 5%, heat-inactivated 5% human male AB serum (Grifols Diagnostic) in AimV (ThermoFisher) supplemented with 10 mM HEPES buffer, 2 mM L-glutamine, and 100 U/100 μg/ml penicillin/streptomycin (ThermoFisher) and 2.5 μg/mL soluble anti-CD28 (BD BioSciences). On Day 1, 20 U/mL recombinant IL-2 (Proleukin) and recombinant and 10 ng/mL IL-15 (R&D Systems) was added to all conditions.

CD8+ T cells from PBMC = assay: IFN-γ ELISpot, PBMC-derived in vitro expanded CD8+ T cell lines; assay type: cell-based, human; details: PBMC T cell lines, responding donors/donors tested
CD4+ T cells from PBMC = assay: IFN-γ ELISpot, PBMC-derived in vitro expanded CD4+ T cell lines; assay type: cell-based, human; set-up: key to T cell recognition by PBMC from a T1D donor (mark E) / T cell recognition by PBMC from a T1D donor: E: T cell recognition by PBMC from a T1D donor was tested and verified; see Figure 5; details: for T1D Donor T cell response / non-T1D Donor T cell response: PBMC T cell lines, responding donors/donors tested; for T cell recognition by PBMC from a T1D donor (mark E): tested and verified, see Figure 5; for Number of donors whose CD4 T cells recognized the peptide (IFN-γ ELISpot): T1D donors, PBMC-derived lines (Figure 5J); for IFN-γ ELISpot response of expanded CD4+ T cells: control donor LSLP-074, frequencies ∼10-fold lower than for T1D-004 (Figures 5E, 5F, S5B)
[2] = SEC (Secretory) A2 Peptides Set
[3] = DRB1*03:01+ donor 6579, cytokine bead array (Figures 6I–6K)
[4] = PTM and unmodified native Pool Peptides (pool PTM 1), long peptides
[5] = PTM and unmodified native Pool Peptides (pool PTM 1), 9-mer peptides
[6] = SEC (Secretory) DR3 Peptides Set

“AAAFVNQHL [compound 171, secretory hormone eluted peptide, pool SEC A2]” was tested, and the “islet derived T cell lines response to A2-S peptide pools or to single peptides” value ([1]; donor 6551 lines) was “donors 6551 and 6578 lines negative”, the “islet derived T cell lines response to A2-S peptide pools or to single peptides” value ([1]; donor 6578 lines) was “donors 6551 and 6578 lines negative” and the “T1D Donor T cell response” value (CD8+ T cells from PBMC; [2]) was 0/6. For the same sequence, the “non-T1D Donor T cell response” value (CD8+ T cells from PBMC; [2]) was 0/4.
For “AVPEEEGPTVVLXPHPSLG [148–1, CHGA peptide 148 with asparagine modified to aspartate]”, the “IFN-γ secretion, islet-derived T cell lines” value [1, 3] was “recognized”, the “IL-10 secretion, islet-derived T cell lines” value [1, 3] was “recognized” and the “TNF-α secretion, islet-derived T cell lines” value [1, 3] was “recognized”. For the same sequence, the “islet derived T cell lines response to DR peptide pools or to single peptides” value ([1]; donor 6550 lines) was “donor 6550 lines negative”, the “islet derived T cell lines response to DR peptide pools or to single peptides” value ([1]; donor 6579 lines, listed as 148-1) was “donor 6579 lines positive with TNFa and IL-10 secretion” and the “T1D Donor T cell response” value (CD4+ T cells from PBMC; [4]) was 0/4. For the same sequence, the “non-T1D Donor T cell response” value (CD4+ T cells from PBMC; [4]) was 0/4.
In the case of AVPEEEGPTVVLXPHPSLG [148–2], the “islet derived T cell lines response to DR peptide pools or to single peptides” value ([1]; donor 6579 lines, listed as 148-2) is reported as “donor 6579 lines positive with IFNg, TNFa and IL-10 secretion”.
In the case of “EADFAIEAL [150-1, PTM peptide, E=deamidated, Q=glutamic acid, pool PTM A2]”, the “islet derived T cell lines response to A2-S peptide pools or to single peptides” value ([1]; donor 6551 lines) is reported as “donor 6551 lines positive with IFNg, TNFa, IL10 secretion”, the “T1D Donor T cell response” value (CD8+ T cells from PBMC; [5]) is reported as 0/6 and the “non-T1D Donor T cell response” value (CD8+ T cells from PBMC; [5]) is reported as 0/4.
For IGEETVITVDTKAAGKGK [peptide 14], the “T1D Donor T cell response” value (CD4+ T cells from PBMC; DR3/DQ Set Peptides) was 0/4 and the “non-T1D Donor T cell response” value (CD4+ T cells from PBMC; DR3/DQ Set Peptides) was 0/2.
For IPGYIVDDSVRVEQ [peptide 19], the “T1D Donor T cell response” value (CD4+ T cells from PBMC; DR3/DQ Set Peptides) was 0/4 and the “non-T1D Donor T cell response” value (CD4+ T cells from PBMC; DR3/DQ Set Peptides) was 0/2.
In the case of ITSIVKDSSAARNGL, the “T cell recognition by PBMC from a T1D donor (mark E)” value (shortened to “T cell recognition … (mark E)”) (CD4+ T cells from PBMC; MHC-II peptides) is reported as “ITS IVKDSSAAR NGL ^ E”.
In the case of ITSIVKDSSAARNGL [peptide 18], the “T1D Donor T cell response” value (CD4+ T cells from PBMC; DR3/DQ Set Peptides) is reported as 2/4 and the “non-T1D Donor T cell response” value (CD4+ T cells from PBMC; DR3/DQ Set Peptides) is reported as 0/2.
With KARFAKQPAYTLVDR the “T cell recognition … (mark E)” value (CD4+ T cells from PBMC; MHC-II peptides) was “KAR FAKQPAYTL VDR ^ E”.
With KARFAKQPAYTLVDR [compound 24] the “T1D Donor T cell response” value (CD4+ T cells from PBMC; DR3/DQ Set Peptides) was 3/4, the “non-T1D Donor T cell response” value (CD4+ T cells from PBMC; DR3/DQ Set Peptides) was 2/2 and the “Number of donors whose CD4 T cells recognized the peptide (IFN-γ ELISpot)” value (CD4+ T cells from PBMC) was “three of the donors”. The “IFN-γ ELISpot response of expanded CD4+ T cells” value (CD4+ T cells from PBMC) was “responded”.
KQGYQLIEGNQVLHS [compound 20] was tested, and the “T1D Donor T cell response” value (CD4+ T cells from PBMC; DR3/DQ Set Peptides) was 0/4 and the “non-T1D Donor T cell response” value (CD4+ T cells from PBMC; DR3/DQ Set Peptides) was 0/2.
With KRPAIWIDTGIHSRE the “T cell recognition … (mark E)” value (CD4+ T cells from PBMC; MHC-II peptides) was “KRPA IWIDTGIHS RE ^ E”.
For KRPAIWIDTGIHSRE [peptide 10], the “T1D Donor T cell response” value (CD4+ T cells from PBMC; DR3/DQ Set Peptides) was 4/4, the “non-T1D Donor T cell response” value (CD4+ T cells from PBMC; DR3/DQ Set Peptides) was 2/2 and the “Number of donors whose CD4 T cells recognized the peptide (IFN-γ ELISpot)” value (CD4+ T cells from PBMC) was “all four donors”. For the same sequence, the “IFN-γ ELISpot response of expanded CD4+ T cells” value (CD4+ T cells from PBMC) was “responded”.
With “KSIYFVAGL [compound 173, secretory hormone eluted peptide, pool SEC A2]” the “islet derived T cell lines response to A2-S peptide pools or to single peptides” value ([1]; donor 6551 lines) was “donors 6551 and 6578 lines negative”, the “islet derived T cell lines response to A2-S peptide pools or to single peptides” value ([1]; donor 6578 lines) was “donors 6551 and 6578 lines negative” and the “T1D Donor T cell response” value (CD8+ T cells from PBMC; [2]) was 0/6. For the same sequence, the “non-T1D Donor T cell response” value (CD8+ T cells from PBMC; [2]) was 0/4.
For LEKDIISDTSGDFRK [compound 8], the “T1D Donor T cell response” value (CD4+ T cells from PBMC; DR3/DQ Set Peptides) was 0/4 and the “non-T1D Donor T cell response” value (CD4+ T cells from PBMC; DR3/DQ Set Peptides) was 0/2.
LNKSINPDEAVAYGAA was tested, and the “T cell recognition by PBMC from a T1D donor” value (CD4+ T cells from PBMC; MHC-II peptides, superscript E on the peptide, G = verified with QBL cells) was “LNKS INPDEAVAY GAA ^ E”.
With LNKSINPDEAVAYGAA [peptide 15] the “T1D Donor T cell response” value (CD4+ T cells from PBMC; DR3/DQ Set Peptides) was 1/4 and the “non-T1D Donor T cell response” value (CD4+ T cells from PBMC; DR3/DQ Set Peptides) was 0/2.
With NPAEFVVNTSNAGAG the “T cell recognition … (mark E)” value (CD4+ T cells from PBMC; MHC-II peptides) was “NPAE FVVNTSNAG AG ^ E”.
For NPAEFVVNTSNAGAG [compound 22], the “T1D Donor T cell response” value (CD4+ T cells from PBMC; DR3/DQ Set Peptides) was 0/4 and the “non-T1D Donor T cell response” value (CD4+ T cells from PBMC; DR3/DQ Set Peptides) was 0/2.
With NPANPAILSEASAPIPHDG [compound 27] the “T1D Donor T cell response” value (CD4+ T cells from PBMC; DR3/DQ Set Peptides) was 0/4 and the “non-T1D Donor T cell response” value (CD4+ T cells from PBMC; DR3/DQ Set Peptides) was 0/2.
For NYPSLELDKMAHG, the “T cell recognition … (mark E)” value (CD4+ T cells from PBMC; MHC-II peptides) was “NYPSLELDKMAHG ^ E”.
“NYPSLELDKMAHG [peptide 182, secretory hormone eluted peptide from CHGB, pool SEC DR3]” was tested, and the “IL-10 secretion, islet-derived T cell lines” value [1, 3] was “recognized”, the “islet derived T cell lines response to DR peptide pools or to single peptides” value ([1]; donor 6579 lines) was “donor 6579 lines positive with IL-10 secretion” and the “T1D Donor T cell response” value (CD4+ T cells from PBMC; [6]) was 0/4. For the same sequence, the “non-T1D Donor T cell response” value (CD4+ T cells from PBMC; [6]) was 0/4.
